Measurements as given in US9884841B2, “Small molecule inhibitors of Mcl-1 and uses thereof” (The Regents of the University of Michigan, priority 2015, dated 2018).
“Also recorded” adds a separate entry of the source. One block for each compound: values may come before it.

Tests used:
[1] = test system: Panc-1 cells; test: Cell growth inhibition of Panc-1 by MTT assay, ABT-263 with 483; assay type: cell-based
Excerpt: FIG. 7: 483 synergizes with ABT-263 to kill Panc-1 cells.
As expected, ABT-263 had little effect on this cell line (FIG. 7).

[2] = test system: Mcl-1 knockout MEFs; assay type: cell-based; details: 15 h
Protocol: Cell viability was assessed using propidium iodide staining detected with flow cytometry. […] The percentage of dead cells was calculated using LIVE/DEAD fixable violet dead cell stain (VIVID) and detected with flow cytometry.

[3] = biological target: T1, Mcl-1 (Homo sapiens, UniProt Q07820); details: cited from earlier work
Target sequence in this assay (Q07820 whole entry, species assumed): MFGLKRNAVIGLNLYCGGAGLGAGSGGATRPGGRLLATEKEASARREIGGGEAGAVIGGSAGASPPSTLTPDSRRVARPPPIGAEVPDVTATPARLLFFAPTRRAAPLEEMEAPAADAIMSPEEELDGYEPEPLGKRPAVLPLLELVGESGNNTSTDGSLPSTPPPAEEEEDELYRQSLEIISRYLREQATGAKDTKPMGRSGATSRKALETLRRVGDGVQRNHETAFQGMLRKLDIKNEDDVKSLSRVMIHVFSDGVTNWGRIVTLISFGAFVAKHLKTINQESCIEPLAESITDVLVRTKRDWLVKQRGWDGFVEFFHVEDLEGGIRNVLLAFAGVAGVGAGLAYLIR

[4] = biological target: T1, Mcl-1; test: FP based binding assay to Mcl-1 (Bid BH3 peptide probe)
Target sequence in this assay (Q07820 whole entry): as the sequence (Q07820 whole entry, species assumed) above

[5] = biological target: T1, Mcl-1; test: HSQC NMR spectroscopy of binding to Mcl-1 protein; details: compound in complex with Mcl-1
Excerpt: [drawing 85] with 5,6-difuran-2-yl-1,2,4-triazine core identified with high throughput screening (see, e.g., Du, Y., et al., Assay and drug development technologies 9, 382-393). […] The second furan ring has weak hydrophobic interaction with residues Phe 318 and Phe 319, which are located proximal to the conserved h4 pocket (FIG. 1). These two residues were identified that contribute to additional hydrophobic contacts with the staple of a reported stabilized α-helix (see, e.g., Stewart, M. L., et al., Nat Chem Biol 6, 595-601).
[drawing 86] was de-novo designed (FIG. 1). In the 368, one furan ring was replaced with carboxylate moiety in order to improve the conserved hydrogen bond, the other furan ring was replaced with phenylsulfonamido and the side chain was changed to phenethylthio substituent in order to allow further modification for improving hydrophobic interactions.
Target sequence in this assay (Q07820 whole entry): as the sequence (Q07820 whole entry, species assumed) above

[6] = biological target: T2, Bcl-xL (Homo sapiens, UniProt Q07817); test: Binding selectivity, Bcl-xL
T2 sequence (Q07817 whole entry, species assumed): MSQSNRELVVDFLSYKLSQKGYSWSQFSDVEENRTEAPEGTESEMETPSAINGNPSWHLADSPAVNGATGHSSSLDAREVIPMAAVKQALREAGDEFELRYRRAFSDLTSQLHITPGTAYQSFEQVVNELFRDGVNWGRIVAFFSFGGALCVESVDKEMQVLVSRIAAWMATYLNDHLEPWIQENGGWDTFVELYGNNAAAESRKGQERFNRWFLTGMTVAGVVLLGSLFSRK

[7] = biological target: T3, endogenous Mcl-1 protein (Homo sapiens, UniProt Q07820); test: Pull-down assay using biotin-labeled Noxa and 2LMP whole cell lysate; assay type: binding; details: Western blot with anti-Mcl-1 antibody
T3 construct: endogenous in cells; host or cells: 2LMP human breast cancer cells (whole cell lysate)
T3 sequence (Q07820 whole entry): as the sequence (Q07820 whole entry, species assumed) above
Protocol: FIG. 3: Mcl-1 inhibitors recognize and bind endogenous Mcl-1 protein. Biotin-labeled Noxa (BL-Noxa, […]) was incubated with whole cell lysates of 2LMP cells with or without tested Mcl-1 inhibitors and Bim BH3 peptide as a positive control, followed by incubation with precleared streptavidin agarose beads. Eluted beads were subjected to Western blot analysis with anti-Mcl-1 antibody.

[8] = test system: Eμ-myc lymphoma cells overexpressing Mcl-1; test: Cell death in Eμ-myc lymphoma cells overexpressing Mcl-1; assay type: cell-based, mouse; details: Eμ-myc lymphoma overexpressing Mcl-1, 15 h, VIVID stain, flow cytometry
Protocol: (§1) FIG. 5A-B: A) 483 induces Bax/Bak and Mcl-1 dependent cell death. Mouse Embryonic Fibroblasts (MEFs) were treated for 15 h with 483 and ABT263. Cell viability was assessed using propidium iodide staining detected with flow cytometry. […] Cells were treated for 15 h with increasing concentrations of (A) 483 and (B) ABT263. […] The percentage of dead cells was calculated using LIVE/DEAD fixable violet dead cell stain (VIVID) and detected with flow cytometry. (*) is p<0.001.
(§2) Wild-type, Bax/Bak double knockout and Mcl-1 knockout MEFs cells have been employed as models to establish the mechanism-based apoptosis and on-target activity (see, e.g., Lindsten, T., and Thompson, C. B. (2006) Cell death and differentiation 13, 1272-1276). […] The specificity of this class Mcl-1 inhibitors was further confirmed by using cell lines developed by retroviral transduction of lymphoma cells isolated from Eg-myc transgenic mice which survival depends on the expression of individual prosurvival protein.

[9] = biological target: T4, Mcl-1/BAK protein-protein interactions (Homo sapiens, UniProt Q07820); test: Co-immunoprecipitation of Mcl-1 protein in Panc-1 cells; assay type: cell-based; details: different concentrations, Mcl-1 immunoprecipitation and Western blot
T4 construct: endogenous in cells; host or cells: Panc-1 cells
T4 sequence (Q07820 whole entry): as the sequence (Q07820 whole entry, species assumed) above
Excerpt: FIG. 8: 483LM disrupts the Mcl-1/BAK protein-protein interactions in Panc-1 cell line.

[10] = test system: Bax/Bak double knockout MEFs; test: Cell viability in Bax/Bak double knockout MEFs; assay type: cell-based; details: 15 h
Protocol: as §1, §2

[11] = test system: Eμ-myc lymphoma cells overexpressing Bcl-2; test: Cell death in Eμ-myc lymphoma cells overexpressing Bcl-2; assay type: cell-based, mouse; details: Eμ-myc lymphoma overexpressing Bcl-2, 15 h
Protocol: as §1, §2

[12] = test system: wild-type MEFs; test: Cell viability in wild-type MEFs; assay type: cell-based, mouse; details: 15 h, propidium iodide staining, flow cytometry
Protocol: as §1, §2

[13] = biological target: Bcl-2 (Homo sapiens, UniProt P10415); test: Binding selectivity, Bcl-2
Bcl-2, sequence (P10415 whole entry, species assumed): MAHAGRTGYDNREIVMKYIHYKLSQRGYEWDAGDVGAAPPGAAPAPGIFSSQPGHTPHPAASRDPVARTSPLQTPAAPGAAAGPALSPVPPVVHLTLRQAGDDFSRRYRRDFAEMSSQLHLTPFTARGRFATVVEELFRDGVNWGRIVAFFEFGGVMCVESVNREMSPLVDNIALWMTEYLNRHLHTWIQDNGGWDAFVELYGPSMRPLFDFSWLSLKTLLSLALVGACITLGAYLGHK

[14] = biological target: T5, Bcl-w (Homo sapiens, UniProt Q92843); test: Binding selectivity, Bcl-w
T5 sequence (Q92843 1-193): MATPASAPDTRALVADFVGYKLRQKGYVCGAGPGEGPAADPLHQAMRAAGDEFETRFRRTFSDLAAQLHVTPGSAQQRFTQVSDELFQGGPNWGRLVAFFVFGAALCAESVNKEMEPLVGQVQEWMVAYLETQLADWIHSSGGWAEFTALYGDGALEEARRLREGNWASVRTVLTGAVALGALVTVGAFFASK

[15] = biological target: T2, Bcl-xL; test: Cell-free functional assay with purified mitochondria, Smac release, Bcl-xL; assay type: biochemical; details: concentrations as high as 9 μM
Excerpt: To provide direct evidence that 483 and 487 also selectively antagonize Mcl-1 function, a cell-free functional assay was established using purified mitochondria, recombinant Mcl-1 and Bcl-xL proteins, and the BIM BH3 peptide which binds to both proteins with high affinities.

[16] = FP assay using Bid BH3 peptide as a probe
[17] = Binding affinity of Mcl-1 inhibitors using FP based assay, Table 1

Structure (SMILES): CC1(C)CCC(c2ccc(Cl)cc2)=C(CN2CCN(c3ccc(C(=O)NS(=O)(=O)c4ccc(N[C@H](CCN5CCOCC5)CSc5ccccc5)c(S(=O)(=O)C(F)(F)F)c4)cc3)CC2)C1 [ABT-263, reference compound]
effect on cell line, single agent ([1]; Panc-1, 48 h): little effect
cytotoxicity / growth-inhibitory activity [2]: increased growth-inhibitory activity

Structure (SMILES): CN(C)CC[C@H](CSc1ccccc1)Nc1ccc(S(=O)(=O)NC(=O)c2ccc(N3CCN(Cc4ccccc4-c4ccc(Cl)cc4)CC3)cc2)cc1[N+](=O)[O-] [ABT-737]
binding to Mcl-1 [3]: fails to bind

Ki [4, 16]: 490 ± 10 nM
chemical shift perturbations in HSQC NMR spectrum [5]: large chemical shift perturbations
Structure (SMILES): O=C(O)c1cc(SCCc2ccccc2)ccc1NS(=O)(=O)c1ccccc1 [Compound 368, 5-(Phenethylthio)-2-(phenylsulfonamido)benzoic acid]

Ki [4, 17]: 70 ± 21 nM
improvement in comparison with 382 ([4]; relative to 382): 2.5 fold
Structure (SMILES): CC(C)c1cc(NS(=O)(=O)c2ccc3ccccc3c2)c(C(=O)O)cc1SCCc1ccccc1 [Compound 478, 4-isopropyl-2-(naphthalene-2-sulfonamido)-5-(phenethylthio)benzoic acid]

Ki [4, 17]: 66 ± 27 nM
Structure (SMILES): Cc1cccc(-c2cc(NS(=O)(=O)N3CCN(c4ccc(C(C)(C)C)cc4)CC3)c(C(=O)O)cc2SCCC(=O)Nc2ccccc2)c1 [Compound 479]

Ki [4, 17]: 10 ± 3 nM
Structure (SMILES): CC(C)c1cc(NS(=O)(=O)c2ccc(Oc3ccc(F)cc3)cc2)c(C(=O)O)cc1-c1ccc(COc2cccc(C(F)(F)F)c2)cc1 [Compound 480, 4-(4-(4-fluorophenoxy)phenylsulfonamido)-6-isopropyl-4′-((3-(trifluoromethyl)phenoxy)methyl)-[1,1′-biphenyl]-3-carboxylic acid]

Ki [4, 17]: > 2000 nM
Structure (SMILES): COC(=O)c1cc(-c2ccc(COc3cccc(C(F)(F)F)c3)cc2)c(C(C)C)cc1NS(=O)(=O)c1ccc(Oc2ccc(F)cc2)cc1 [Compound 481, methyl 4-(4-(4-fluorophenoxy)phenylsulfonamido)-6-isopropyl-4′-((3-(trifluoromethyl)phenoxy)methyl)-[1,1′-biphenyl]-3-carboxylate]

Ki [4, 17]: > 2000 nM
Structure (SMILES): COC(=O)c1cc(-c2ccc(COc3cccc(C(F)(F)F)c3)cc2)c(C(C)C)cc1NS(=O)(=O)c1ccc2ccccc2c1 [Compound 482, methyl 6-isopropyl-4-(naphthalene-2-sulfonamido)-4′-((3-(trifluoromethyl)phenoxy)methyl)-[1,1′-biphenyl]-3-carboxylate]

Structure (SMILES): CC(C)c1cc(NC(=O)c2ccc(Oc3ccccc3)cc2)c(C(=O)O)cc1-c1ccc(COc2cccc(C(F)(F)F)c2)cc1 [Compound 483, 6-isopropyl-4-(4-phenoxybenzamido)-4′-((3-(trifluoromethyl)phenoxy)methyl)-[1,1′-biphenyl]-3-carboxylic acid]
combination effect with ABT-263 ([1]; Panc-1, 48 h): synergizes; also recorded: substantially shifted the dose-response curve
improvement of IC50 of cell growth inhibition of ABT-263 ([1]; Panc-1, ABT-263 in the presence of 483, 48 h): more than 660 fold
Ki ([4]; binding affinity to Mcl-1): 7 ± 2 nM
Ki [6]: > 1000 nM
cytotoxicity / growth-inhibitory activity [2]: didn't show cytotoxicity
blocking of the binding of BL-Noxa to Mcl-1 [7]: dose-dependent blocked
cell death / sensitization [8]: led to sensitization; also recorded: selectively induces cell death
disruption of Mcl-1/Bak protein-protein interactions [9]: dose-dependent disruption
disruption of Mcl-1/Bak protein-protein interactions ([9]; listed as 483LM): disrupts
cytotoxicity [10]: didn't show cytotoxicity
effect on cells [11]: did not show effect
cell death [12]: causes cell death
Ki [13]: > 1000 nM
Ki [14]: > 1000 nM
release of Smac in the Bcl-xL functional assay [15]: fail to release Smac

Ki [4, 17]: 42 ± 17 nM
Structure (SMILES): CC(C)(C)c1ccc(N2CCN(C(=O)CCc3cccc(-c4ccc(C(=O)O)c(NS(=O)(=O)N5CCN(c6ccc(C(C)(C)C)cc6)CC5)c4)c3)CC2)cc1 [Compound 484]

Ki [4, 17]: 437 ± 67 nM
Structure (SMILES): Cc1cccc(-c2cc(NS(=O)(=O)c3ccccc3)c(C(=O)O)cc2SCCC(=O)Nc2ccccc2)c1 [Compound 485]

Ki [4, 17]: > 2000 nM
Structure (SMILES): COC(=O)c1cc(-c2ccc(COc3cccc(C(F)(F)F)c3)cc2)c(C(C)C)cc1NC(=O)c1ccc(Oc2ccccc2)cc1 [Compound 486, methyl 6-isopropyl-4-(4-phenoxybenzamido)-4′-((3-(trifluoromethyl)phenoxy)methyl)-[1,1′-biphenyl]-3-carboxylate]

Ki [4, 17]: 8 ± 2 nM
release of Smac in the Bcl-xL functional assay [15]: fail to release Smac
Structure (SMILES): CC(C)c1cc(NC(=O)c2ccc(Oc3ccc(F)cc3)cc2)c(C(=O)O)cc1-c1ccc(COc2cccc(C(F)(F)F)c2)cc1 [Compound 487, 4-(4-(4-fluorophenoxy)benzamido)-6-isopropyl-4′-((3-(trifluoromethyl)phenoxy)methyl)-[1,1′-biphenyl]-3-carboxylic acid]

Ki [4, 17]: 2360 ± 116 nM
Structure (SMILES): O=C(O)c1ccc(SCCc2ccccc2)cc1NS(=O)(=O)c1ccccc1 [Compound 702, 4-(Phenethylthio)-2-(phenylsulfonamido)benzoic acid]

Ki [4, 16]: 2090 ± 180 nM
chemical shift perturbations in HSQC NMR spectrum [5]: concentration-dependent perturbations
Structure (SMILES): O=C(CSc1nnc(-c2ccco2)c(-c2ccco2)n1)Nc1ccccc1 [Compound E238, reference compound]
